Measurements reported in patent EP0947494A1, “Derivatives of phenoxy acetic acid and phenoxymethyltetrazole having antitumor activity” (F. HOFFMANN-LA ROCHE AG, priority 1998, dated 1999).

What was measured:
MCF-7 ADR cells = assay: Radiosensitizing activity assay, surviving cells counted by trypan blue staining; format: cell-based, Human; details: for radiosensitization: MCF-7 ADR cells (mutant p53, high GST content); for % living cells relative to control without drug treatment: MCF-7ADR
Description: (§1) Biological assay for radiosensitizing activity of MDM2 antagonistic compounds: Human tumor cell lines containing wild-type p53 and low levels of GST, such as MCF7 (breast carcinoma) or mutant p53 and a high GST content, such as MCF7 ADR (adriamycin-resistant breast carcinoma) are cultivated in RPMI medium, supplemented with 10% fetal calf serum to a semi-confluent state.
In order to determine the radiosensitizing activity of selected compounds on these cells a minimal toxic dose was determined as 2Gy (gray: J/kg) with a ^137Cesium source at room temperature. […] Cells were trypsinized and seeded in appropriate dilutions into 6 well plates. Surviving cells were trypsinized after 12-13 days and cell number was determined by staining with trypane blue for living/dead cells. The protocol was established according to Khil et al., 1996, Int. J. Rad. Oncol. Biol. Phys. 34, 375-380.

MCF-7 cells = assay: as above; format: cell-based, Human
Description: as §1
In order to determine the radiosensitizing activity of selected compounds on these cells a minimal toxic dose was determined as 2Gy (gray: J/kg) with a ^137Cesium source at room temperature. Following irradiation of monolayer cells in exponential growth phase with 2 Gy, cells were incubated with various concentrations of the selected compounds for 2-6 h. Cells were trypsinized and seeded in appropriate dilutions into 6 well plates. Surviving cells were trypsinized after 12-13 days and cell number was determined by staining with trypane blue for living/dead cells. The protocol was established according to Khil et al., 1996, Int. J. Rad. Oncol. Biol. Phys. 34, 375-380.

HT29 cytosolic GST = HT29 cytosolic GST (Homo sapiens, UniProt P09211); assay: Spectrophotometric GST activity analysis in HT29 cell extracts (CDNB/glutathione); format: biochemical; details: HT29 cell extract
Chain of HT29 cytosolic GST (P09211 2-210): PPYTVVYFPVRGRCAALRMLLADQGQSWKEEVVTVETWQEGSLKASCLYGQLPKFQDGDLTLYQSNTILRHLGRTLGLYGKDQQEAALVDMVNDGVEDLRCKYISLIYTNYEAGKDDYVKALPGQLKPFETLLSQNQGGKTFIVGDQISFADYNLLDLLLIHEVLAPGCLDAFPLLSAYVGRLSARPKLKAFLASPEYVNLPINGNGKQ
Description: GST catalyzes the conjugation of CDNB with glutathione and results in a CDNB-glutathione product with a strong molar absorption at 340 nm. The change of absorption is monitored for 5 min.
1 x 10^6 cells are collected and washed once with ice-cold phosphate-buffered saline at 1000 rpm for 10 min at 4°C. Cell pellets are resuspended in 200 µl ice-cold phosphate-buffered saline, and are sonicated for 2 min on ice. The sonicate is then centrifuged at 11750 g, 4°C for 15 min in an Eppendorf Centrifuge, and the supernatant is assayed for GST activity.

MDM2 = molecular target: T1, MDM2 (Homo sapiens, UniProt Q00987); assay: Interaction of compounds with MDM2; format: binding
T1 construct: 40 µl of mdm2 1-213 (100nM in PBST) were mixed with 40 µl of the sample; made in house
T1 sequence (Q00987 1-213): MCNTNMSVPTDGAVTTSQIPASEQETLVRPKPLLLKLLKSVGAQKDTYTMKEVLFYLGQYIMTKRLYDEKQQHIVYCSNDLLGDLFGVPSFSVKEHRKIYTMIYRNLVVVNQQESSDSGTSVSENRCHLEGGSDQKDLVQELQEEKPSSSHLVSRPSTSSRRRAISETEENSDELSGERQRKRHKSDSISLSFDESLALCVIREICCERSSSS
Description: BIACORE analysis of the interaction between MDM2 and p53: To quantify the effect of selected compounds on the p53 binding properties of MDM2 protein biosensor measurements using BIACORE 2000 are performed. BIACORE 2000 is a biosensor system delivered from BIACORE AB. The technology of this biosensor is based on the optical phenomenon of surface plasmon resonance (SRP), which detects changes in refractive index of the solution close to the surface of the sensor chip. The refractive index is directly correlated to the mass concentration in the layer and increases when analyte binds to a surface immobilized ligand. Experiments are performed under continuous flow conditions. The SPR response expressed in resonance units (RU) is recorded continuously versus time resulting in a sensorgram. When one interaction is completed, the surface can be regenerated using solutions which remove bound analyte without affecting the activity of the bound ligand. […] After additional 4 minutes rinsing the surface with PBST buffer, a signal was recorded. By comparing the signals of the samples with those of buffer, the inhibitory effects of the samples could be evaluated. […]

[1] = 2 Gy + drug 20 µg/ml, drug incubation time following irradiation 0 hours
[2] = 2 Gy + drug 20 µg/ml, drug incubation time following irradiation 2 hours
[3] = 2 Gy + drug 20 µg/ml, drug incubation time following irradiation 6 hours
[4] = drug alone 20 µg/ml, drug incubation time 0 hours
[5] = drug alone 20 µg/ml, drug incubation time 2 hours
[6] = drug alone 20 µg/ml, drug incubation time 6 hours

## O=C(O)COc1ccc(C(=O)/C=C/c2ccc(Cl)c(Cl)c2)cc1 [LSM 83177, 3,4-dichloro-4'-(carboxymethoxy)chalcone]
MCF-7 ADR cells
  radiosensitization: Radiosensitizing activity independent of the GST content of the target cell can be observed
MCF-7 ADR cells; [1]
  % living cells relative to control without drug treatment: 100%
MCF-7 ADR cells; [2]
  % living cells relative to control without drug treatment: 72.8%
MCF-7 ADR cells; [3]
  % living cells relative to control without drug treatment: 48.8%
MCF-7 ADR cells; [4]
  % living cells relative to control without drug treatment: 100%
MCF-7 ADR cells; [5]
  % living cells relative to control without drug treatment: 87.2%
MCF-7 ADR cells; [6]
  % living cells relative to control without drug treatment: 85.7%
MCF-7 cells; [1]
  % living cells relative to control without drug treatment: 100%
MCF-7 cells; [2]
  % living cells relative to control without drug treatment: 41.8%
MCF-7 cells; [3]
  % living cells relative to control without drug treatment: 17%
MCF-7 cells; [4]
  % living cells relative to control without drug treatment: 100%
MCF-7 cells; [5]
  % living cells relative to control without drug treatment: 64.1%
MCF-7 cells; [6]
  % living cells relative to control without drug treatment: 36.4%
MCF-7 cells; drug incubated for 2 hours
  enhancement of irradiation by the drug (factor): 1.5
MCF-7 cells; drug incubated for 6 hours
  enhancement of irradiation by the drug (factor): 2
HT29 cytosolic GST; concentration 0,2 µg/ml
  activity at 0.2 µg/mL: 100%
HT29 cytosolic GST; concentration 0,04 µg/ml
  activity at 0.04 µg/mL: 100%
HT29 cytosolic GST; concentration 0,4 µg/ml
  activity at 0.4 µg/mL: 100%
HT29 cytosolic GST; concentration 1 µg/ml
  activity at 1 µg/mL: 100%
HT29 cytosolic GST; concentration 2 µg/ml
  activity at 2 µg/mL: 100%
HT29 cytosolic GST; concentration 5 µg/ml
  activity at 5 µg/mL: 73%
HT29 cytosolic GST; concentration 8 µg/ml
  activity at 8 µg/mL: 46%
HT29 cytosolic GST; concentration 10 µg/ml
  activity at 10 µg/mL: 26%
HT29 cytosolic GST; concentration 20 µg/ml
  activity at 20 µg/mL: 0%
HT29 cytosolic GST; concentration 1,3 µg/ml
  activity at 1.3 µg/mL: 100%
HT29 cytosolic GST; concentration 2,5 µg/ml
  activity at 2.5 µg/mL: 95%

## C=C(CC)C(=O)c1ccc(OCC(=O)O)c(Cl)c1Cl [ethacrynic acid, reference compound]
MCF-7 ADR cells
  radiosensitization: does not mediate any radiosensitization
MCF-7 ADR cells; [1]
  % living cells relative to control without drug treatment: 100%
MCF-7 ADR cells; [2]
  % living cells relative to control without drug treatment: 82.5%
MCF-7 ADR cells; [3]
  % living cells relative to control without drug treatment: 133.6%
MCF-7 ADR cells; [4]
  % living cells relative to control without drug treatment: 100%
MCF-7 ADR cells; [5]
  % living cells relative to control without drug treatment: 88.9%
MCF-7 ADR cells; [6]
  % living cells relative to control without drug treatment: 99%
MCF-7 cells; [1]
  % living cells relative to control without drug treatment: 100%
MCF-7 cells; [2]
  % living cells relative to control without drug treatment: 42.7%
MCF-7 cells; [3]
  % living cells relative to control without drug treatment: 20.5%
MCF-7 cells; [4]
  % living cells relative to control without drug treatment: 100%
MCF-7 cells; [5]
  % living cells relative to control without drug treatment: 52.3%
MCF-7 cells; [6]
  % living cells relative to control without drug treatment: 43.1%
MCF-7 cells; drug incubated for 2 hours
  enhancement of irradiation by the drug (factor): 1.5
MCF-7 cells; drug incubated for 6 hours
  enhancement of irradiation by the drug (factor): 2
MDM2
  interaction with MDM2: interaction of ethacrynic acid with MDM2 was surprisingly observed
